Source: paper PMC4129416, “YLT192, a Novel, Orally Active Bioavailable Inhibitor of VEGFR2 Signaling with Potent Antiangiogenic Activity and Antitumor Efficacy in Preclinical Models” (Scientific Reports, 2014)

Assays:
[1] = test system: HUVEC; assay: Wound healing migration assay; format: cell-based, human; settings: 24 hours
Text: Cell migration is essential for ECs in angiogenesis and for cancer cells in tumor growth and metastasis. […] Cell invasion is essential for EC in angiogenesis, so we performed transwell assays to evaluate the ability of HUVEC to pass through the Matrigel and membrane barriers of the transwell in the presence of various concentrations of YLT192 or vehicle.
Figure 2 Effects of YLT192 on HUVECs proliferation, migration, invasion and tube formation. […] Cells were wounded by the pipette and then treated with various concentrations of compounds for 24 hours. Migrated cells were quantified by manual counting (50×). […] The bottom chambers of the transwells were filled with 600 μL EGM2 containing various growth factors while the top chambers were seeded with 4 × 10^4 HUVECs in EBM2 and treated with different concentrations of compounds for 24 hours. Cells invaded through the membrane were stained and quantified (100×). […] HUVECs were seeded on Matrigel layer and treated with different concentrations of compounds. HUVECs tube formation was assessed 6 hours later (50×). One representative experiment of three is shown. For (A), (B) and (C), data represent the mean ± SEM of three different experiments. Each experiment was performed in duplicate.*P < 0.05, **P < 0.01. (D) YLT192 inhibited VEGF-induced phosphorylation of VEGFR2 and its downstream signal regulator p44/42 MAPK, STAT3 and AKT in HUVECs. One representative Western blot of three is presented. Each has the expression of β-actin as internal control. The full size blots were shown in the Supplemental Figure S5 online. (E) Cellular thermal shift assay showing VEGFR2 target engagement by YLT192 in intact HUVECs. One representative Western blot of two is presented. The full size blots were shown in the Supplemental Figure S6 online. […]
HUVECs were allowed to grow into full confluence in 24-well plates and then wounded by scratching with pipette tips and washed with PBS. […] Images were taken using a ZEISS digital microscope and invading cells were counted by manual counting. […]

[2] = test system: HCT116 cells; assay: Annexin V/propidium iodide apoptosis assay, flow cytometry; format: cell-based, human; settings: 48 hours; annexin V-FITC and PI staining; concentration-dependent
Method: Figure 4 Inhibitory effects of YLT192 on tumor cells. (A) YLT192 inhibited U251 and HCT116 cells proliferation. The EdU incorporation assay was conducted on U251 and HCT116 cells after treated with YLT192 for 24 hours. The EdU-positive (red fluorescent staining) cells and Hoechst staining (blue fluorescent staining) cells represented proliferating and total cells in the fluorescent images, respectively (100×). Quantification was shown on the right panels. (B) YLT192 induced apoptosis of HCT116 cells. HCT116 cells were treated with YLT192 or vehicle for 48 hours followed by flow cytometric analysis of annexin V-FITC and PI staining. The proportion of early apoptotic cells (annexin V positive) and late apoptotic cells (annexin V and PI positive cells) were shown. Typical apoptosis-related proteins caspase 3 and Bax were detected by western blot. Each has the expression of β-actin as internal control. The full size blots were shown in the Supplemental Figure S6 online. For (A) and (B), one representative experiment of three is shown. Data are means ± SEM, *P < 0.05, **P < 0.01. (C) YLT192 inhibited oncogenic signaling pathways in tumor cells in vitro. U251 and HCT116 cells were treated with YLT192 or vehicle for 48 hours and the expression of protein in different signaling pathways were detected by western blot with specific antibodies. Blots are representative of three experiments. […]

With `CNC(=O)c1cc(Oc2ccc(NC(=O)c3cccc(OC)c3)cc2)ccn1` [YLT192] the “migration of HUVEC” value ([1]; 2.5 μM, wound healing) was “strongly inhibited”, the “HUVECs migration in wound healing assay” value ([1]; various concentrations) was “inhibited HUVECs migration” and the “apoptosis in HCT116 cells” value [2] was “increased apoptosis”.
